Test results reported in patent publication US20090111778A1, “2-Keto-Oxazoles as Modulators of Fatty Acid Amide Hydrolase” (priority 2005, published 2009).

Assays:
human FAAH = biological target: T1, human FAAH (Homo sapiens, UniProt O00519); assay: Assay Method 1: FAAH assay, hydrolysis of 3H-anandamide by homogenate of SK-N-MC cells transfected with human FAAH; format: biochemical; settings: human FAAH; T84 or transfected SK-N-MC cell homogenate; 3H-AEA tracer 80 nM; rt 1 h; pH 9; read-out: Assay 1 IC50
T1 construct: expressed in transfected cells
T1 sequence (O00519 1-579): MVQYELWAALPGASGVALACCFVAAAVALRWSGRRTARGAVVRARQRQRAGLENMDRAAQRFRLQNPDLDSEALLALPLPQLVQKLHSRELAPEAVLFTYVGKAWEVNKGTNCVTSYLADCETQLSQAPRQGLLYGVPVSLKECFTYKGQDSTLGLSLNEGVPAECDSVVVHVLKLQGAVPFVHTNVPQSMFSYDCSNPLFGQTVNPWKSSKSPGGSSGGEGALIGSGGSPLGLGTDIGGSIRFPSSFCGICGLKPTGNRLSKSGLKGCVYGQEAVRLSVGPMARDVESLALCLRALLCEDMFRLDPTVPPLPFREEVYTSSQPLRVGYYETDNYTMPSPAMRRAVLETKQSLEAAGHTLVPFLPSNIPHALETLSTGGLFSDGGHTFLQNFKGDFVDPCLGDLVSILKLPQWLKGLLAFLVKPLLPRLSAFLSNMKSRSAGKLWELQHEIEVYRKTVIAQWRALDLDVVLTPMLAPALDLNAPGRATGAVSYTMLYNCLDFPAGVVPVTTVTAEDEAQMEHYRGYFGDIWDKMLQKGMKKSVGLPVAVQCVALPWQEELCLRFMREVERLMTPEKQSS
Procedure, shortened: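 Homogenate of SK-N-MC cells stably expressing human FAAH (G418-selected clones) incubated with compound and 80 nM [1-3H-ethanolamine]anandamide for 1 h at rt. Released 3H-ethanolamine separated from substrate by activated-charcoal filtration, then counted by scintillation.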

rat FAAH = biological target: T2, rat FAAH (Rattus norvegicus, UniProt P97612); assay: Assay Method 2: FAAH assay, hydrolysis of 3H-anandamide by homogenate of SK-N-MC cells transfected with rat FAAH; format: biochemical; settings: T84 or transfected SK-N-MC cell homogenate, 3H-AEA tracer 80 nM, rt 1 h, pH 9
T2 construct: expressed in transfected cells
T2 sequence (P97612 1-579): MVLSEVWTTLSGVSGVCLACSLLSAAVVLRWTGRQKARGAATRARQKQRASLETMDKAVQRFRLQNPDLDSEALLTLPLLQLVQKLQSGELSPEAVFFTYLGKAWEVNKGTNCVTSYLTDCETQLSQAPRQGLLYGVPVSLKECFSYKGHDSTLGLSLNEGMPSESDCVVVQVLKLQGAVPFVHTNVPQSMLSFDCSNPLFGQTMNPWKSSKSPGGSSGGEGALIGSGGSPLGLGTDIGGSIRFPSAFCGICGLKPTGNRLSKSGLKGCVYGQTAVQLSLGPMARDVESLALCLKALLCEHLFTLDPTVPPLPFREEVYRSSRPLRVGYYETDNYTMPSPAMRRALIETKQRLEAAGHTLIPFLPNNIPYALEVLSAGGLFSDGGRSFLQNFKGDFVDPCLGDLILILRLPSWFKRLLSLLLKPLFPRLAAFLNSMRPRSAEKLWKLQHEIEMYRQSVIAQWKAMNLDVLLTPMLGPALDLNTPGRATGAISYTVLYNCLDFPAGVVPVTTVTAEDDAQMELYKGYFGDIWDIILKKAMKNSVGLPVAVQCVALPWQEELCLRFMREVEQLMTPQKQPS
Procedure, shortened: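 Rat FAAH activity from homogenate of G418-selected, electroporated SK-N-MC clones was measured as release of radiolabelled ethanolamine from 3H-anandamide. After 1 h at rt, charcoal filtration retained substrate, and scintillation counting of the flow-through gave the read-out.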

Row | Structure (SMILES) | IC50 (human FAAH) | IC50 (rat FAAH)
1 | O=C(CCCC1CCN(S(=O)(=O)c2ccc(Cl)cc2)CC1)c1ncco1 [Example 60, 4-[1-(4-Chloro-benzenesulfonyl)-piperidin-4-yl]-1-oxazol-2-yl-butan-1-one] | 4 nM | 34 nM
2 | COc1ccc(S(=O)(=O)N2CCC(CCCC(=O)c3ncco3)CC2)cc1 [Example 61, 4-[1-(4-Methoxy-benzenesulfonyl)-piperidin-4-yl]-1-oxazol-2-yl-butan-1-one] | 2 nM | 37 nM
3 | O=C(CCCC1CCN(S(=O)(=O)c2ccc(Cl)c(Cl)c2)CC1)c1ncco1 [Example 62, 4-[1-(3,4-Dichloro-benzenesulfonyl)-piperidin-4-yl]-1-oxazol-2-yl-butan-1-one] | 14 nM | 110 nM
4 | O=C(CCCC1CCN(C(=O)OCc2ccccc2)CC1)c1ncco1 [Example 63, 4-(4-Oxazol-2-yl-4-oxo-butyl)-piperidine-1-carboxylic acid benzyl ester] | 3 nM | 2 nM
5 | CCOC(=O)N1CCC(CCCC(=O)c2ncco2)CC1 [Example 64, 4-(4-Oxazol-2-yl-4-oxo-butyl)-piperidine-1-carboxylic acid ethyl ester] | 6 nM | 14 nM
6 | COCCOC(=O)N1CCC(CCCC(=O)c2ncco2)CC1 [Example 65, 4-(4-Oxazol-2-yl-4-oxo-butyl)-piperidine-1-carboxylic acid 2-methoxy-ethyl ester] | 69 nM | 240 nM
7 | O=C(CCCC1CCN(C(=O)OCCOCc2ccccc2)CC1)c1ncco1 [Example 66, 4-(4-Oxazol-2-yl-4-oxo-butyl)-piperidine-1-carboxylic acid 2-benzyloxy-ethyl ester] | 0.7 nM | 2 nM
8 | CC(C)(C)COC(=O)N1CCC(CCCC(=O)c2ncco2)CC1 [Example 67, 4-(4-Oxazol-2-yl-4-oxo-butyl)-piperidine-1-carboxylic acid 2,2-dimethyl-propyl ester] | 50 nM | 118 nM
9 | CC(C)COC(=O)N1CCC(CCCC(=O)c2ncco2)CC1 [Example 68, 4-(4-Oxazol-2-yl-4-oxo-butyl)-piperidine-1-carboxylic acid isobutyl ester] | 10 nM | 55 nM
10 | CC(C)OC(=O)N1CCC(CCCC(=O)c2ncco2)CC1 [Example 69, 4-(4-Oxazol-2-yl-4-oxo-butyl)-piperidine-1-carboxylic acid isopropyl ester] | 4 nM | 9 nM
11 | CCCOC(=O)N1CCC(CCCC(=O)c2ncco2)CC1 [Example 70, 4-(4-Oxazol-2-yl-4-oxo-butyl)-piperidine-1-carboxylic acid propyl ester] | 7 nM | 19 nM
12 | CCc1ccc(CN2CCC(CCCC(=O)c3ncco3)CC2)cc1 [Example 71, 4-[1-(4-Ethyl-benzyl)-piperidin-4-yl]-1-oxazol-2-yl-butan-1-one] | 7 nM | 49 nM
13 | O=C(CCCC1CCN(Cc2cccc(-c3ccccc3)c2)CC1)c1ncco1 [Example 72, 4-(1-Biphenyl-3-ylmethyl-piperidin-4-yl)-1-oxazol-2-yl-butan-1-one] | 0.9 nM | 2 nM
14 | O=C(CCCC1CCN(Cc2ccc(-c3ccccc3)cc2)CC1)c1ncco1 [Example 73, 4-(1-Biphenyl-4-ylmethyl-piperidin-4-yl)-1-oxazol-2-yl-butan-1-one] | 24 nM | 45 nM
15 | COc1ccc(CN2CCC(CCCC(=O)c3ncco3)CC2)cn1 [Example 74, 4-[1-(6-Methoxy-pyridin-3-ylmethyl)-piperidin-4-yl]-1-oxazol-2-yl-butan-1-one] | 1300 nM | 5000 nM
16 | O=C(CCCC1CCN(Cc2ccc(Cl)nc2)CC1)c1ncco1 [Example 75, 4-[1-(6-Chloro-pyridin-3-ylmethyl)-piperidin-4-yl]-1-oxazol-2-yl-butan-1-one] | 600 nM | 1000 nM
17 | O=C(CCCC1CCN(Cc2ccc(Br)nc2)CC1)c1ncco1 [Example 76, 4-[1-(6-Bromo-pyridin-3-ylmethyl)-piperidin-4-yl]-1-oxazol-2-yl-butan-1-one] | 400 nM | 650 nM

Row | Structure (SMILES) | IC50 (human FAAH) | IC50 (rat FAAH)
18 | O=C(CCCC1CCN(Cc2cccc(Br)n2)CC1)c1ncco1 [Example 77, 4-[1-(6-Bromo-pyridin-2-ylmethyl)-piperidin-4-yl]-1-oxazol-2-yl-butan-1-one] | 313 nM | 1000 nM
19 | O=C(CCCC1CCN(Cc2cncc(Br)c2)CC1)c1ncco1 [Example 78, 4-[1-(5-Bromo-pyridin-3-ylmethyl)-piperidin-4-yl]-1-oxazol-2-yl-butan-1-one] | 98 nM | 500 nM
20 | Cc1ccccc1CN1CCC(CCCC(=O)c2ncco2)CC1 [Example 80, 4-[1-(2-Methyl-benzyl)-piperidin-4-yl]-1-oxazol-2-yl-butan-1-one] | 1200 nM | 2000 nM
21 | O=C(CCCC1CCN(Cc2cccc(F)c2F)CC1)c1ncco1 [Example 81, 4-[1-(2,3-Difluoro-benzyl)-piperidin-4-yl]-1-oxazol-2-yl-butan-1-one] | 200 nM | 1000 nM
22 | CC(C)Cc1ccc(CN2CCC(CCCC(=O)c3ncco3)CC2)cc1 [Example 82, 4-[1-(4-Isobutyl-benzyl)-piperidin-4-yl]-1-oxazol-2-yl-butan-1-one] | 23 nM | 49 nM
23 | CC(C)(C)c1ccc(CN2CCC(CCCC(=O)c3ncco3)CC2)cc1 [Example 83, 4-[1-(4-tert-Butyl-benzyl)-piperidin-4-yl]-1-oxazol-2-yl-butan-1-one] | 7 nM | 84 nM
24 | O=C(CCCC1CCN(Cc2ccccc2Cl)CC1)c1ncco1 [Example 84, 4-[1-(2-Chloro-benzyl)-piperidin-4-yl]-1-oxazol-2-yl-butan-1-one] | 260 nM | 563 nM
25 | O=C(CCCC1CCN(Cc2ccccc2Br)CC1)c1ncco1 [Example 85, 4-[1-(2-Bromo-benzyl)-piperidin-4-yl]-1-oxazol-2-yl-butan-1-one] | 315 nM | 240 nM
26 | CN(C)c1ccc(CN2CCC(CCCC(=O)c3ncco3)CC2)cc1 [Example 88, 4-[1-(4-Dimethylamino-benzyl)-piperidin-4-yl]-1-oxazol-2-yl-butan-1-one] | 325 nM | 3000 nM
27 | CCN(CC)c1ccc(CN2CCC(CCCC(=O)c3ncco3)CC2)cc1 [Example 89, 4-[1-(4-Diethylamino-benzyl)-piperidin-4-yl]-1-oxazol-2-yl-butan-1-one] | 130 nM | 700 nM
28 | O=C(CCCC1CCN(Cc2cccc(Br)c2)CC1)c1ncco1 [Example 90, 4-[1-(3-Bromo-benzyl)-piperidin-4-yl]-1-oxazol-2-yl-butan-1-one] | 10 nM | 118 nM
29 | O=C(CCCC1CCN(Cc2ccc(Br)cc2)CC1)c1ncco1 [Example 91, 4-[1-(4-Bromo-benzyl)-piperidin-4-yl]-1-oxazol-2-yl-butan-1-one] | 45 nM | 270 nM
30 | O=C(CCCC1CCN(Cc2ccc3ccccc3n2)CC1)c1ncco1 [Example 92, 1-Oxazol-2-yl-4-(1-quinolin-2-ylmethyl-piperidin-4-yl)-butan-1-one] | 60 nM | 290 nM
31 | O=C(CCCC1CCN(Cc2ccnc3ccccc23)CC1)c1ncco1 [Example 93, 1-Oxazol-2-yl-4-(1-quinolin-4-ylmethyl-piperidin-4-yl)-butan-1-one] | 70 nM | 923 nM
32 | Cc1cccc(CN2CCC(CCCC(=O)c3ncco3)CC2)c1C [Example 94, 4-[1-(2,3-Dimethyl-benzyl)-piperidin-4-yl]-1-oxazol-2-yl-butan-1-one] | 400 nM | 2100 nM
33 | Cc1ccc(Oc2ccc(CN3CCC(CCCC(=O)c4ncco4)CC3)cn2)cc1 [Example 96, 1-Oxazol-2-yl-4-[1-(6-p-tolyloxy-pyridin-3-ylmethyl)-piperidin-4-yl]-butan-1-one] | 125 nM | 132 nM
